Among the data in BindingDB's records for doi:10.1021/jm100470t (Ume&#163, 2010) are IC50 values, retold here.

Molecules are shown by their SMILES. pIC50: −log10 of the molar value.

The assay is described as follows: Inhibition of Escherichia coli UTI89 PapD chaperon assessed as inhibition of biofilm formation.
By pIC50 is commonly meant −log10 of the IC50, conventionally taken in molar units. As to `O=C(O)c1c(-c2ccco2)sc2c(C3CC3)c(Cc3cccc4ccccc34)cc(=O)n12`, the pIC50 is 4.21.

Turning to `CS(=O)(=O)NC(=O)c1c(-c2ccccc2)sc2c(C3CC3)c(Cc3cccc4ccccc34)cc(=O)n12`, the pIC50 is 4.41. As to `Cc1sc2c(C3CC3)c(Cc3cccc4ccccc34)cc(=O)n2c1C(=O)O`, the pIC50 is 4.05.

On to `CC(C)(O)c1sc2c(C3CC3)c(Cc3cccc4ccccc34)cc(=O)n2c1C(=O)O`, for which the pIC50 is 3.52. On to `Cc1ccc(-c2sc3c(C4CC4)c(Cc4cccc5ccccc45)cc(=O)n3c2C(=O)O)cc1`, for which the pIC50 was 4.89. As to `O=C(O)c1c(-c2ccsc2)sc2c(C3CC3)c(Cc3cccc4ccccc34)cc(=O)n12`, the negative logarithm of the IC50 (pIC50) was 4.60. With `O=C(O)c1c(-c2ccoc2)sc2c(C3CC3)c(Cc3cccc4ccccc34)cc(=O)n12`, the pIC50 is 4.11. The same measure for `Cc1cccc(-c2sc3c(C4CC4)c(Cc4cccc5ccccc45)cc(=O)n3c2C(=O)O)c1`: 4.96; for `O=C(O)c1c(Cc2ccccc2)sc2c(C3CC3)c(Cc3cccc4ccccc34)cc(=O)n12`: 5.15. Take `O=C(Nc1ccccc1)c1sc2c(C3CC3)c(Cc3cccc4ccccc34)cc(=O)n2c1C(=O)O`: the pIC50 is 3.80. As for `O=C(O)c1c(-c2ccccc2)sc2c(C3CC3)c(Cc3cccc4ccccc34)cc(=O)n12`, the negative-log IC50 (pIC50) is 4.96.
